{
  "source": "patent US20230416262A1",
  "about": "“TRPML MODULATORS” (Casma Therapeutics, Inc., priority 2020, published 2023)",
  "data": [
    {"test_system": "THP-1 cells", "test": "Lamp1 lysosomal exocytosis assay", "type": "cell-based", "conditions": "Homo sapiens, 55 min, 55 min incubation, top dose 20 μM", "procedure": "For the Lamp1 lysosomal exocytosis assay, a human monocytic suspension cell line (THP-1) was used. Cells in culture should be used between a density of […] and 1.2e6/mL on the day of the assay. For each 96-well assay plate to be used, pellet 11e6 THP-1 cells at 330×g for 5 min in a 50 mL conical tube, aspirate media and resuspend in 22 mLs of RPMI 1640/10% FBS media for a final cell concentration of 5e5/mL. Prior to addition of cells to the assay plate, perform a 7 pt dilution curve using a top dose of compound at 2 mM and use a 3-fold serial dilution, the 8th point is DMSO only. Final top dose of compound in the assay was 20 μM. 2 μL of each serial dilution was transferred to a new 96-well v-bottom assay plate. 198 μL of cells (1e5 total cells/well) was prepared as above in each well of the assay plate and incubated at 37° C./5% CO2/95% RH for 55 min. After the 55 min incubation, cells were pelleted for 5 min at 4 C at 400×g in a tabletop centrifuge. The media was separated from the cell pellets in the plate. The pellets were washed using 200 μL ice cold buffer (PBS Ca^++/Mg^++ containing 2% final BSA and 80 μM final Dynasore). Cells were pelleted again at 400×g-5 min in a 4° C. tabletop centrifuge. Buffer was separated from cells. Each well was suspended in 75 uL Lamp1-PE antibody buffer (PBS Ca^++/Mg^++ containing 2% final BSA with 80 uM final Dynasore and 1:800 final dilution of Lamp 1-PE labeled antibody). After a 45 min antibody incubation on ice, 25 μL of sytox green was added (I drop/mL buffer), and each well was mixed and incubated for an additional 15 min on ice. After the 15 min sytox green incubation, 100 μL of ice-cold buffer (PBS Ca^++/Mg^++ containing 2% final BSA and 80 uM final Dynasore) was added and cells were pelleted for 5 min at 400×g. The buffer was removed and each sample was resuspended in 100 uL of ice-cold buffer (PBS Ca^++/Mg^++ containing 2% final BSA and 80 μM final Dynasore). FACs gating strategy: FACS analyze for sytox green (A488) and Lamp1-PE (DsRed). First gate against FSC-A/SSC-A to find non-fragmented or ‘live’ THP-1 cells. Next gate against FITC-A/FSC-A to omit sytox green positive cells. Then gate for FSC-A/FSC-H to remove any doublet cells. The last gate was a histogram for PE. The statistics for ‘count’ and ‘geometric mean fluorescence intensity’ (gWFI) for PE were repoted on the last gate.\nCompounds having an activity designated as “++++” provided an exocytosis readout of ≤0.50 μM; compounds having an activity designated as “+++” provided an exocytosis readout of 0.51-1.00 μM; compounds having an activity designated as “++” provided an exocytosis readout of 1.01-5.00 μM; and compounds having an activity designated as “+” provided an exocytosis readout of ≥5.01 μM", "units": {"EC50": "µM"}, "values": [
      {"smiles": "O=C(OCc1ccccc1)N1CCC2(CC1)CN(S(=O)(=O)c1ccc(C(F)F)cc1)c1cnccc12", "note": "[Compound I-135, benzyl 1′-[4-(difluoromethyl)benzenesulfonyl]-1′,2′-dihydrospiro[piperidine-4,3′-pyrrolo[2,3-c]pyridine]-1-carboxylate]", "EC50": "≤ 0.5"},
      {"smiles": "O=C(N1CCCC1)N1CCC2(CC1)CN(S(=O)(=O)c1ccc(C(F)F)cc1)c1ccccc12", "note": "[Compound I-136, (1-((4-(difluoromethyl)phenyl)sulfonyl)spiro[indoline-3,4′-piperidin]-1′-yl)(pyrrolidin-1-yl)methanone]", "EC50": "≥ 5.01"},
      {"smiles": "O=S(=O)(c1ccc(C(F)F)cc1)N1CC2(CCC(F)(F)CC2)c2ccccc21", "note": "[Compound I-138, 1′-[4-(difluoromethyl)benzenesulfonyl]-4,4-difluoro-1′,2′-dihydrospiro[cyclohexane-1,3′-indole]]", "EC50": "≥ 5.01"},
      {"smiles": "O=C(OCc1ccccn1)N1CCC2(CC1)CN(S(=O)(=O)c1ccc(C(F)F)cc1)c1ccccc12", "note": "[Compound I-141, pyridin-2-ylmethyl 1-((4-(difluoromethyl)phenyl)sulfonyl)spiro[indoline-3,4′-piperidine]-1′-carboxylate]", "EC50": "1.01 to 5"},
      {"smiles": "O=C(NC1CC1)N1CCC2(CC1)CN(S(=O)(=O)c1ccc(C(F)F)cc1)c1ccccc12", "note": "[Compound I-142, N-cyclopropyl-1-[4-(difluoromethyl)benzenesulfonyl]-1,2-dihydrospiro[indole-3,4′-piperidine]-1′-carboxamide]", "EC50": "≥ 5.01"},
      {"smiles": "O=C(NCc1ccccc1)C1CCC2(CC1)CN(S(=O)(=O)c1ccc(C(F)F)cc1)c1ccccc12", "note": "(stereo not shown) [Compound I-143, N-benzyl-1′-((4-(difluoromethyl)phenyl)sulfonyl)spiro[cyclohexane-1,3′-indoline]-4-carboxamide]", "EC50": "≥ 5.01"},
      {"smiles": "O=S1(=O)CCC2(CC1)CN(S(=O)(=O)c1ccc(C(F)F)cc1)c1ccccc12", "note": "[Compound I-152, 1-((4-(difluoromethyl)phenyl)sulfonyl)-2′,3′,5′,6′-tetrahydrospiro[indoline-3,4′-thiopyran] 1′,1′-dioxide]", "EC50": "≥ 5.01"},
      {"smiles": "CN(C)S(=O)(=O)c1ccc(S(=O)(=O)N2CC3(CCN(Cc4ccccc4)CC3)c3c(F)cccc32)cc1", "note": "[Compound I-155, 4-((1′-benzyl-4-fluorospiro[indoline-3,4′-piperidin]-1-yl)sulfonyl)-N,N-dimethylbenzenesulfonamide]", "EC50": "≤ 0.5"},
      {"smiles": "O=C(OCc1ccncc1)N1CCC2(CC1)CN(S(=O)(=O)c1ccc(C(F)F)cc1)c1ccccc12", "note": "[Compound I-159, pyridin-4-ylmethyl 1-((4-(difluoromethyl)phenyl)sulfonyl)spiro[indoline-3,4′-piperidine]-1′-carboxylate]", "EC50": "≥ 5.01"},
      {"smiles": "CCn1cc(COC(=O)N2CCC3(CC2)CN(S(=O)(=O)c2ccc(C(F)F)cc2)c2ccccc23)cn1", "note": "[Compound I-171]", "EC50": "0.51 to 1"},
      {"smiles": "Cn1cnc(COC(=O)N2CCC3(CC2)CN(S(=O)(=O)c2ccc(C(F)F)cc2)c2ccccc23)c1", "note": "[Compound I-172, (1-methyl-1H-imidazol-4-yl)methyl 1-((4-(difluoromethyl)phenyl)sulfonyl)spiro[indoline-3,4′-piperidine]-1′-carboxylate]", "EC50": "≥ 5.01"},
      {"smiles": "O=C(OCc1cnoc1)N1CCC2(CC1)CN(S(=O)(=O)c1ccc(C(F)F)cc1)c1ccccc12", "note": "[Compound I-173, isoxazol-4-ylmethyl 1-((4-(difluoromethyl)phenyl)sulfonyl)spiro[indoline-3,4′-piperidine]-1′-carboxylate]", "EC50": "1.01 to 5"},
      {"smiles": "O=C(Cc1ccccc1)N1CCC2(CC1)CN(S(=O)(=O)c1ccc(C(F)F)cc1)c1ccccc12", "note": "[Compound I-175, 1-(1-((4-(difluoromethyl)phenyl)sulfonyl)spiro[indoline-3,4′-piperidin]-1′-yl)-2-phenylethan-1-one]", "EC50": "≥ 5.01"},
      {"smiles": "Cn1cc(COC(=O)N2CCC3(CC2)CN(S(=O)(=O)c2ccc(C(F)F)cc2)c2ccccc23)cn1", "note": "[Compound I-176]", "EC50": "1.01 to 5"},
      {"smiles": "CCn1ccc(COC(=O)N2CCC3(CC2)CN(S(=O)(=O)c2ccc(C(F)F)cc2)c2ccccc23)n1", "note": "[Compound I-177, (1-ethyl-1H-pyrazol-3-yl)methyl 1-((4-(difluoromethyl)phenyl)sulfonyl)spiro[indoline-3,4′-piperidine]-1′-carboxylate]", "EC50": "0.51 to 1"},
      {"smiles": "O=C(NCc1ccccc1)N1CCC2(CC1)CN(S(=O)(=O)c1ccc(C(F)F)cc1)c1ccccc12", "note": "[Compound I-179, N-benzyl-1-((4-(difluoromethyl)phenyl)sulfonyl)spiro[indoline-3,4′-piperidine]-1′-carboxamide]", "EC50": "≥ 5.01"},
      {"smiles": "O=C(OCc1ccccc1)N1CCC2(CC1)CN(S(=O)(=O)c1ccc3c(c1)COC3)c1ccccc12", "note": "[Compound I-183, benzyl 1-((1,3-dihydroisobenzofuran-5-yl)sulfonyl)spiro[indoline-3,4′-piperidine]-1′-carboxylate]", "EC50": "≤ 0.5"},
      {"smiles": "O=C(OCc1ccccc1)N1CCC2(CC1)CN(C(=O)c1ccc(C(F)F)cc1)c1ccccc12", "note": "[Compound I-185, benzyl 1-(4-(difluoromethyl)benzoyl)spiro[indoline-3,4′-piperidine]-1′-carboxylate]", "EC50": "≥ 5.01"},
      {"smiles": "CC(C)NC(=O)N1CCC2(CC1)CN(S(=O)(=O)c1ccc(C(F)F)cc1)c1ccccc12", "note": "[Compound I-192, 1-((4-(difluoromethyl)phenyl)sulfonyl)-N-isopropylspiro[indoline-3,4′-piperidine]-1′-carboxamide]", "EC50": "≥ 5.01"},
      {"smiles": "O=C(NCC1CC1)N1CCC2(CC1)CN(S(=O)(=O)c1ccc(C(F)F)cc1)c1ccccc12", "note": "[Compound I-193, N-(cyclopropylmethyl)-1-((4-(difluoromethyl)phenyl)sulfonyl)spiro[indoline-3,4′-piperidine]-1′-carboxamide]", "EC50": "≥ 5.01"},
      {"smiles": "O=C(NCC(F)F)N1CCC2(CC1)CN(S(=O)(=O)c1ccc(C(F)F)cc1)c1ccccc12", "note": "[Compound I-194, N-(2,2-difluoroethyl)-1-((4-(difluoromethyl)phenyl)sulfonyl)spiro[indoline-3,4′-piperidine]-1′-carboxamide]", "EC50": "≥ 5.01"},
      {"smiles": "O=C(NC1CCOC1)N1CCC2(CC1)CN(S(=O)(=O)c1ccc(C(F)F)cc1)c1ccccc12", "note": "(stereo not shown) [Compound I-195, 1-((4-(difluoromethyl)phenyl)sulfonyl)-N-(tetrahydrofuran-3-yl)spiro[indoline-3,4′-piperidine]-1′-carboxamide]", "EC50": "≥ 5.01"},
      {"smiles": "CCOCCNC(=O)N1CCC2(CC1)CN(S(=O)(=O)c1ccc(C(F)F)cc1)c1ccccc12", "note": "[Compound I-196, 1-((4-(difluoromethyl)phenyl)sulfonyl)-N-(2-ethoxyethyl)spiro[indoline-3,4′-piperidine]-1′-carboxamide]", "EC50": "≥ 5.01"},
      {"smiles": "O=C(Nc1ccccc1)N1CCC2(CC1)CN(S(=O)(=O)c1ccc(C(F)F)cc1)c1ccccc12", "note": "[Compound I-197, 1-((4-(difluoromethyl)phenyl)sulfonyl)-N-phenylspiro[indoline-3,4′-piperidine]-1′-carboxamide]", "EC50": "≥ 5.01"},
      {"smiles": "O=C(Nc1cccnc1)N1CCC2(CC1)CN(S(=O)(=O)c1ccc(C(F)F)cc1)c1ccccc12", "note": "[Compound I-198, 1-((4-(difluoromethyl)phenyl)sulfonyl)-N-(pyridin-3-yl)spiro[indoline-3,4′-piperidine]-1′-carboxamide]", "EC50": "≥ 5.01"},
      {"smiles": "Cn1cccc1NC(=O)N1CCC2(CC1)CN(S(=O)(=O)c1ccc(C(F)F)cc1)c1ccccc12", "note": "[Compound I-199, 1-((4-(difluoromethyl)phenyl)sulfonyl)-N-(1-methyl-1H-pyrrol-2-yl)spiro[indoline-3,4′-piperidine]-1′-carboxamide]", "EC50": "≥ 5.01"},
      {"smiles": "Cn1cc(NC(=O)N2CCC3(CC2)CN(S(=O)(=O)c2ccc(C(F)F)cc2)c2ccccc23)cn1", "note": "[Compound I-200, 1-((4-(difluoromethyl)phenyl)sulfonyl)-N-(1-methyl-1H-pyrazol-4-yl)spiro[indoline-3,4′-piperidine]-1′-carboxamide]", "EC50": "≥ 5.01"},
      {"smiles": "O=C(NCC(F)(F)F)N1CCC2(CC1)CN(S(=O)(=O)c1ccc(C(F)F)cc1)c1ccccc12", "note": "[Compound I-201, 1-((4-(difluoromethyl)phenyl)sulfonyl)-N-(2,2,2-trifluoroethyl)spiro[indoline-3,4′-piperidine]-1′-carboxamide]", "EC50": "≥ 5.01"}
    ]}
  ]
}
